Target: T1, catalytic domain of human gelatinase-A (MMP-9) (Homo sapiens, UniProt P14780)
T1 construct: Determination of the Enzymatic Activity of the Catalytic Domain of Human Gelatinase-A (MMP-9); purchased Roche, Mannheim
Test: Enzymatic activity of the catalytic domain of human gelatinase (MMP-9), fluorogenic substrate
Assay type: biochemical
Conditions: stated in the text
Description: Determination of the Enzymatic Activity of the Catalytic Domain of Human Gelatinase-A (MMP-9)
Activation of the proenzyme:
2 parts by volume of proenzyme were incubated with 1 part by volume of APMA solution at 37° C. for 4 hours. The APMA solution was prepared from a 10 mmol/l p-aminophenylmercuric acetate solution in 0.1 mmol/l NaOH by dilution with 3 parts by volume of Tris/HCl buffer pH 7.5 (see below). The pH was adjusted to between 7.0 and 7.5 by adding 1 mmol/l HCl. After activation of the enzyme it was diluted with the Tris/HCl buffer to a concentration of 4.2 mU/ml.
The enzymic activity was measured by incubating 10 μl of enzyme solution with 10 μl of a 3% strength (v/v) buffered dimethyl sulfoxide solution (reaction 1) for 15 minutes. The enzyme inhibitor activity was measured by incubating 10 μl of enzyme solution with 10 μl of a 3% strength (v/v) buffered dimethyl sulfoxide solution which contained the enzyme inhibitor (reaction 2).
The enzymic reaction both in the case of reaction 1 and in the case of reaction 2 was followed after addition of 10 μl of a 3% strength (v/v) aqueous dimethyl sulfoxide solution which contained 0.15 mmol/l of the substrate by fluorescence spectroscopy (328 nm (extinction)/393 nm (emission)).
The enzymic activity has been presented as increase in extinction/minute.
The effect of the inhibitor was calculated as percentage inhibition by the following formula: % inhibition=100−[(increase in extinction/minute in reaction 2)/(increase in extinction/minute in reaction 1)×100].
The IC50, which is the concentration of inhibitor which is necessary for 50% inhibition of the enzymic activity, was determined graphically by plotting the percentage inhibitions at various inhibitor concentrations.
The buffer solution contained 0.05% Brij (Sigma, Deisenhofen, Germany) and 0.1 mol/l Tris/HCl, 0.1 mol/l NaCl, 0.01 mol/l CaCl2 (pH=7.5). The enzyme solution contained 4.2 mU/ml of the enzyme domain. The substrate solution contained 0.15 mmol/l of the fluorogenic substrate (7-methoxycoumarin-4-yl)acetyl-Pro-Leu-Gly-Leu-3-(2′,4′-dinitrophenyl)-L-2,3-diaminopropionyl-Ala-Arg-NH2 (Bachem, Heidelberg, Germany).

T1 sequence (P14780 107-707 limits assumed): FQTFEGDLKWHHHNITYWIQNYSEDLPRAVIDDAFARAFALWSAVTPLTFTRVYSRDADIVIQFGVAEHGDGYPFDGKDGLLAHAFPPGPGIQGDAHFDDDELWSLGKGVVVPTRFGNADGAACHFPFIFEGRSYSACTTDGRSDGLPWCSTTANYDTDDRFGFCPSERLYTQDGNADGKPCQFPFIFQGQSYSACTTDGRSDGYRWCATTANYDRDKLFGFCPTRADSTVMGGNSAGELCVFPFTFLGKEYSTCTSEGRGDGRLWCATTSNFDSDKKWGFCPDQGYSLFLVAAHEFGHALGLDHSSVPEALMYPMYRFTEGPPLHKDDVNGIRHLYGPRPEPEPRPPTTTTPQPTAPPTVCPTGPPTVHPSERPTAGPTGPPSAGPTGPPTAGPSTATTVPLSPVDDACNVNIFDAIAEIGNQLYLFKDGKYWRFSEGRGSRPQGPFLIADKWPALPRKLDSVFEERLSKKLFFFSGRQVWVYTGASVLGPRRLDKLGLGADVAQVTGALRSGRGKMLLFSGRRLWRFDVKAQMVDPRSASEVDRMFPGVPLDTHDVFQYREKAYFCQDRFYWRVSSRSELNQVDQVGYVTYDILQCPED

Row | SMILES | ratio of MMP1 to MMP9 inhibition
1 | COc1ccc(S(=O)(=O)N2CCc3ccccc3C2C(=O)NO)cc1 (centres unmarked) [reference compound] | 3.7
2 | COc1ccc(Oc2ccc(S(=O)(=O)N3CCc4ccccc4C3C(=O)NO)cc2)cc1 (centres unmarked) | 60

— patent US20070203118A1, “SUBSTITUTED TETRAHYDROISOQUINOLINES USED IN THE FORM OF MMP INHIBITORS, METHOD FOR THE PRODUCTION AND USE THEREOF IN THE FORM OF DRUGS” (SANOFI-AVENTIS DEUTSCHLAND GMBH, priority 2004, published 2007)
